Measurements: patent publication US8877759B2, “Aminopyrazines as ATR kinase inhibitors” (Vertex Pharnaceuticals Incorporated, priority 2011, dated 2014)

Target: T1, full-length ATR (Homo sapiens, UniProt Q13535)
T1 construct: Assays were carried out at 25° C. in the presence of 5 nM full-length ATR
Assay: ATR Inhibition Assay (radioactive-phosphate incorporation)
Format: biochemical
Settings: for ATR Ki: Ki(app), 5 nM full-length ATR, 10 μM [γ-33P]ATP, 800 μM target peptide, 25° C.
Method: Compounds were screened for their ability to inhibit ATR kinase using a radioactive-phosphate incorporation assay. Assays were carried out in a mixture of 50 mM Tris/HCl (pH 7.5), 10 mM MgCl2 and 1 mM DTT.
Assays were carried out at 25° C. in the presence of 5 nM full-length ATR. An assay stock buffer solution was prepared containing all of the reagents listed above, with the exception of ATP and the test compound of interest. […] The plate was pre-incubated for 10 minutes at 25° C. and the reaction initiated by addition of 15 μL [γ-33P]ATP (final concentration 10 μM).
The reaction was stopped after […] by the addition of 30 μL 0.1M phosphoric acid containing 2 mM ATP. A multiscreen phosphocellulose filter 96-well plate (Millipore, Cat no. MAPHN0B50) was pretreated with 100 μL 0.2M phosphoric acid prior to the addition of 45 μL of the stopped assay mixture. The plate was washed with 5×200 μL 0.2M phosphoric acid.
After removing mean background values for all of the data points, Ki(app) data were calculated from non-linear regression analysis of the initial rate data using the Prism software package (GraphPad Prism version 3.0cx for Macintosh, GraphPad Software, San Diego Calif., USA).

T1 sequence (Q13535 whole entry): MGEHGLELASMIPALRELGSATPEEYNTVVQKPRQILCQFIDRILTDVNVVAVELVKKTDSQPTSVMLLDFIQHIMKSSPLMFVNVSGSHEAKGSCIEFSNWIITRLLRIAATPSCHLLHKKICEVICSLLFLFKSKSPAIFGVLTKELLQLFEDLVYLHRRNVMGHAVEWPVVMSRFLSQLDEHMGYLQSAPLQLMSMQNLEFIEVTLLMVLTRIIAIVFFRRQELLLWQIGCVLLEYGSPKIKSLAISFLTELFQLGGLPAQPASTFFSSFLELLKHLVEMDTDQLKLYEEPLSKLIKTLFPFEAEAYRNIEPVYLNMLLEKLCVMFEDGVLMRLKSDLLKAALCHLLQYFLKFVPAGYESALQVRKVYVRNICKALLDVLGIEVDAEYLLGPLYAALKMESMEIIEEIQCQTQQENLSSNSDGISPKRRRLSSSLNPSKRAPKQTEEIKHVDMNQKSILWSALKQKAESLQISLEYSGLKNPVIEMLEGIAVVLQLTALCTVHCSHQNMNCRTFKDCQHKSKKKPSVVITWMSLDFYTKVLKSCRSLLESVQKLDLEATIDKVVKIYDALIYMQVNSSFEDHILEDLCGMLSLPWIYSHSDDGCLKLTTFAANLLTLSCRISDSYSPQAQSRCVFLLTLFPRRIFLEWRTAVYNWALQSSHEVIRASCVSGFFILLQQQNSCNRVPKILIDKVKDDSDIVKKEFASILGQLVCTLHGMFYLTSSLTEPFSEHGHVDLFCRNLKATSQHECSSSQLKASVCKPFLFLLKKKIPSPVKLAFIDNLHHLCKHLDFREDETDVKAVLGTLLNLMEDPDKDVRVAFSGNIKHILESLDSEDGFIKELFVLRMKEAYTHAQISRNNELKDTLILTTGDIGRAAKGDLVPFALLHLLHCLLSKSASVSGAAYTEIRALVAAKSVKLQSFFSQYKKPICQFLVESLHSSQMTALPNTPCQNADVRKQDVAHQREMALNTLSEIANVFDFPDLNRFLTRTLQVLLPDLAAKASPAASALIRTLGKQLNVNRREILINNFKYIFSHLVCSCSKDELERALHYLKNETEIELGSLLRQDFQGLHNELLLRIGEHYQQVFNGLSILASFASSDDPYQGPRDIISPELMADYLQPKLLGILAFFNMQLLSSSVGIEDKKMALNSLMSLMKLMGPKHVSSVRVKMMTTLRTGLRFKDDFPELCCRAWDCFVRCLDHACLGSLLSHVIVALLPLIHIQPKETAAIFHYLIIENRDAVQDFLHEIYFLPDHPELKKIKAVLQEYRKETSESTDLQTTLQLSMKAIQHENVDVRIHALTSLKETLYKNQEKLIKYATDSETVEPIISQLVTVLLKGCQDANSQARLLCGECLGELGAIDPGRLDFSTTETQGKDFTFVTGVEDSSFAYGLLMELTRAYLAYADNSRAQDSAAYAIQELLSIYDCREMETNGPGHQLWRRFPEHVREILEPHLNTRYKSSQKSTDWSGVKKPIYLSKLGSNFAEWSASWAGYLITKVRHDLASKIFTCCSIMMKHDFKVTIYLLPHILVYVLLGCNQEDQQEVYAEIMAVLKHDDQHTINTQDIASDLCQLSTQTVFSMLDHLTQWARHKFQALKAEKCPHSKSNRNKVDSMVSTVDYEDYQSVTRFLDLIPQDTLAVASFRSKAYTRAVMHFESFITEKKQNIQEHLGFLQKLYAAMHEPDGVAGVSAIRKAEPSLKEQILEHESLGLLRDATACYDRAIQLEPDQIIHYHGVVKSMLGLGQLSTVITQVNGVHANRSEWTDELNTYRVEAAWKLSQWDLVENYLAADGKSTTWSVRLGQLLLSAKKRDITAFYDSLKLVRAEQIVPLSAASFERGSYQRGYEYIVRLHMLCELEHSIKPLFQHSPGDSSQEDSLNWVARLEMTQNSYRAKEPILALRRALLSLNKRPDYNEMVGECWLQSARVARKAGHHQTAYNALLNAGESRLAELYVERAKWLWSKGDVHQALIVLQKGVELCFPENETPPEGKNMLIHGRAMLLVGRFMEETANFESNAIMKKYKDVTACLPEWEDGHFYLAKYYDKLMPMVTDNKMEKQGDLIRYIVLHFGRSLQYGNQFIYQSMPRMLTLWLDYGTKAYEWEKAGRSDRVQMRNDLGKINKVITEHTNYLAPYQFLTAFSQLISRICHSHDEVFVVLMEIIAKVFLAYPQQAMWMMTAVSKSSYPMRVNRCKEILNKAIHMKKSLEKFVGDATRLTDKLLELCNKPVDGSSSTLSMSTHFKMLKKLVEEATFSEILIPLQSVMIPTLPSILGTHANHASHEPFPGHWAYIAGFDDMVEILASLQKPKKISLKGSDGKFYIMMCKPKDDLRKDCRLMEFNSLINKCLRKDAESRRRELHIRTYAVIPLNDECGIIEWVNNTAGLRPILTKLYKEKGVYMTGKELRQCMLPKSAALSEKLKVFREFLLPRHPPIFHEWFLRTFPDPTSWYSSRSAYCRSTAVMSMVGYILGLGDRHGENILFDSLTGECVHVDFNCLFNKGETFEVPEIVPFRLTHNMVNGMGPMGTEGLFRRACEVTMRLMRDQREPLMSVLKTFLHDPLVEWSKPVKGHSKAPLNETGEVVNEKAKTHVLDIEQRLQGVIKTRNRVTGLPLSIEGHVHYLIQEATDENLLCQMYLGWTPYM

## C[C@H](N)c1ccc(-c2nnc(-c3nc(-c4ccnc(C5(C#N)CCC5)c4)cnc3N)o2)cc1 [Compound I-43, 1-[4-[5-amino-6-[5-[4-[(1S)-1-aminoethyl]phenyl]-1,3,4-oxadiazol-2-yl]pyrazin-2-yl]-2-pyridyl]cyclobutanecarbonitrile]
  Ki: < 1 nM

## C[C@H](N)c1ccc(-c2nnc(-c3nc(-c4ccnc(C(C)(C)C#N)c4)cnc3N)o2)cc1 [Compound I-44, 2-[4-[5-amino-6-[5-[4-[(1S)-1-aminoethyl]phenyl]-1,3,4-oxadiazol-2-yl]pyrazin-2-yl]-2-pyridyl]-2-methyl-propanenitrile]
  Ki: < 1 nM

## CC(C)(C(N)=O)c1cc(-c2cnc(N)c(-c3cc(-c4ccccc4)no3)n2)ccn1 [Compound I-45, 2-[4-[5-amino-6-(3-phenylisoxazol-5-yl)pyrazin-2-yl]-2-pyridyl]-2-methyl-propanamide]
  ATR Ki: +++ (Compounds with a Ki value >5 nM but ≦1 nM are marked with “+++.”)

## CC(C)(C(=O)NCCO)c1cc(-c2cnc(N)c(-c3cc(-c4ccccc4)no3)n2)ccn1 [Compound I-46, 2-[4-[5-amino-6-(3-phenylisoxazol-5-yl)pyrazin-2-yl]-2-pyridyl]-N-(2-hydroxyethyl)-2-methyl-propanamide]
  Ki: < 1 nM

## CC(C)(C(=O)N1CCC1)c1cc(-c2cnc(N)c(-c3cc(-c4ccccc4)no3)n2)ccn1 [Compound I-47, 2-[4-[5-amino-6-(3-phenylisoxazol-5-yl)pyrazin-2-yl]-2-pyridyl]-1-(azetidin-1-yl)-2-methyl-propan-1-one]
  Ki: 5 to 20 nM

## CC(C)(C#N)c1cc(-c2cnc(N)c(-c3cc(-c4ccc(CNC5CC5)cc4)no3)n2)ccn1 [Compound I-48, 2-[4-[5-amino-6-[3-[4-[(cyclopropylamino)methyl]phenyl]isoxazol-5-yl]pyrazin-2-yl]-2-pyridyl]-2-methyl-propanenitrile]
  Ki: < 1 nM

## CNCc1ccc(-c2cc(-c3nc(-c4ccnc(C(C)C#N)c4)cnc3N)on2)cc1 (stereo not drawn) [Compound I-49, 2-[4-[5-amino-6-[3-[4-(methylaminomethyl)phenyl]isoxazol-5-yl]pyrazin-2-yl]-2-pyridyl]propanenitrile]
  Ki: < 1 nM

## CC(C#N)c1cc(-c2cnc(N)c(-c3cc(-c4ccccc4)no3)n2)ccn1 (stereo not drawn) [Compound I-50, 2-[4-[5-amino-6-(3-phenylisoxazol-5-yl)pyrazin-2-yl]-2-pyridyl]propanenitrile]
  Ki: < 1 nM

## CC(C)(C#N)c1cc(-c2cnc(N)c(-c3cc(-c4ccc(O)cc4)no3)n2)ccn1 [Compound I-51, 2-[4-[5-amino-6-[3-(4-hydroxyphenyl)isoxazol-5-yl]pyrazin-2-yl]-2-pyridyl]-2-methyl-propanenitrile]
  Ki: < 1 nM

## CC(C)(C#N)c1cc(-c2cnc(N)c(-c3nnc(-c4ccc5c(c4)CCNC5)o3)n2)ccn1 [Compound I-52, 2-[4-[5-amino-6-[5-(1,2,3,4-tetrahydroisoquinolin-6-yl)-1,3,4-oxadiazol-2-yl]pyrazin-2-yl]-2-pyridyl]-2-methyl-propanenitrile]
  ATR Ki: +++ (Compounds with a Ki value >5 nM but ≦1 nM are marked with “+++.”)

## CC(C)(C#N)c1cc(-c2cnc(N)c(-c3cc(-c4ccc(CNC5CCOCC5)cc4)no3)n2)ccn1 [Compound I-53, 2-(4-(5-amino-6-(3-(4-(((tetrahydro-2H-pyran-4-yl)amino)methyl)phenyl)isoxazol-5-yl)pyrazin-2-yl)pyridin-2-yl)-2-methylpropanenitrile]
  Ki: < 1 nM

## CC(C)(C#N)c1cc(-c2cnc(N)c(-c3nnc(-c4ccc5c(c4)CNCC5)o3)n2)ccn1 [Compound I-55]
  Ki: < 1 nM

## CN(C)CCOc1ccc(-c2nnc(-c3nc(-c4ccnc(C(C)(C)C#N)c4)cnc3N)o2)cc1 [Compound I-56]
  Ki: < 1 nM

## CC(C)(C#N)c1cc(-c2cnc(N)c(-c3nnc(-c4ccc(CCN)cc4)o3)n2)ccn1 [Compound I-57]
  Ki: < 1 nM

## CC(C)(C#N)c1cc(-c2cnc(N)c(-c3nnc(-c4cccc(C5CNCCN5)c4)o3)n2)ccn1 (stereo not drawn) [Compound I-58]
  Ki: 5 to 20 nM

## CC(C)(C#N)c1cc(-c2cnc(N)c(-c3cc(-c4ccc(C5COCCN5)cc4)no3)n2)ccn1 (stereo not drawn) [Compound I-60]
  Ki: < 1 nM

## CC(C)(C#N)c1cc(-c2cnc(N)c(-c3nnc(-c4ccc(N5CCCC(N)C5)cc4)o3)n2)ccn1 (stereo not drawn) [Compound I-61]
  Ki: < 1 nM

## CC(C)(C(=O)NCCN)c1cc(-c2cnc(N)c(-c3cc(-c4ccccc4)no3)n2)ccn1 [Compound I-63]
  Ki: < 1 nM

## CC(C)(C#N)c1cc(-c2cnc(N)c(-c3nnc(-c4ccc(N5CCC[C@H](N)C5)cc4)o3)n2)ccn1 [Compound I-64]
  ATR Ki: +++ (Compounds with a Ki value >5 nM but ≦1 nM are marked with “+++.”)

## CNCCNC(=O)C(C)(C)c1cc(-c2cnc(N)c(-c3cc(-c4ccccc4)no3)n2)ccn1 [Compound I-65]
  Ki: 5 to 20 nM

## CC(C)(C#N)c1cc(-c2cnc(N)c(-c3nnc(-c4cccc(CCN)c4)o3)n2)ccn1 [Compound I-66]
  Ki: < 1 nM

## COCC(CO)CNCc1ccc(-c2cc(-c3nc(-c4ccnc(C(C)(C)C#N)c4)cnc3N)on2)cc1 (stereo not drawn) [Compound I-67]
  Ki: < 1 nM

## CC(C)(C#N)c1cc(-c2cnc(N)c(-c3nnc(-c4ccc(N5CCCC5CN)cc4)o3)n2)ccn1 (stereo not drawn) [Compound I-68]
  Ki: 5 to 20 nM

## CC(C)(C#N)c1cc(-c2cnc(N)c(-c3nnc(-c4ccc(OCCN5CCCC5)cc4)o3)n2)ccn1 [Compound I-69]
  Ki: < 1 nM

## CC(C)(C#N)c1cc(-c2cnc(N)c(-c3nnc(-c4ccc(F)cc4NCCN)o3)n2)ccn1 [Compound I-70]
  Ki: < 1 nM

## CC(C)(C#N)c1cc(-c2cnc(N)c(-c3cc(-c4ccc([C@H]5COCCN5)cc4)no3)n2)ccn1 [Compound I-71]
  ATR Ki: +++ (Compounds with a Ki value >5 nM but ≦1 nM are marked with “+++.”)

## CN(CCN)c1ccc(-c2nnc(-c3nc(-c4ccnc(C(C)(C)C#N)c4)cnc3N)o2)cc1 [Compound I-72]
  ATR Ki: +++ (Compounds with a Ki value >5 nM but ≦1 nM are marked with “+++.”)

## CC(C)(C#N)c1cc(-c2cnc(N)c(-c3nnc(-c4ccc(N5CCNCC5)cc4)o3)n2)ccn1 [Compound I-73]
  Ki: < 1 nM

## N#CC1(c2cc(-c3cnc(N)c(-c4cc(-c5ccccc5)no4)n3)ccn2)CN2CCC1CC2 (stereo not drawn) [Compound I-74]
  Ki: < 1 nM

## CC(C)(C#N)c1cc(-c2cnc(N)c(-c3nnc(-c4ccc(NCCN)cc4F)o3)n2)ccn1 [Compound I-75]
  Ki: 5 to 20 nM

## CC(C)(C#N)c1cc(-c2cnc(N)c(-c3nnc(-c4ccc(N5CCC(N)CC5)cc4)o3)n2)ccn1 [Compound I-76]
  ATR Ki: +++ (Compounds with a Ki value >5 nM but ≦1 nM are marked with “+++.”)

## CC(C)(C#N)c1cc(-c2cnc(N)c(-c3nnc(-c4cccc(N5CC[C@@H](N)C5)c4)o3)n2)ccn1 [Compound I-77]
  Ki: < 1 nM

## CNCCN(C)c1ccc(-c2nnc(-c3nc(-c4ccnc(C(C)(C)C#N)c4)cnc3N)o2)cc1 [Compound I-78]
  Ki: < 1 nM

## CC(C)(C#N)c1cc(-c2cnc(N)c(-c3nnc(-c4ccc(C5CCCN5)cc4)o3)n2)ccn1 (stereo not drawn) [Compound I-79]
  Ki: < 1 nM

## CC(C)(C#N)c1cc(-c2cnc(N)c(-c3nnc(-c4ccc(C5CNC5)cc4)o3)n2)ccn1 [Compound I-80]
  ATR Ki: +++ (Compounds with a Ki value >5 nM but ≦1 nM are marked with “+++.”)

## CC(C)(C#N)c1cc(-c2cnc(N)c(-c3nnc(-c4ccc5c(c4)CNC5)o3)n2)ccn1 [Compound I-81]
  ATR Ki: +++ (Compounds with a Ki value >5 nM but ≦1 nM are marked with “+++.”)

## CC(C)(C#N)c1cc(-c2cnc(N)c(-c3nnc(-c4ccc(C5CNCCN5)cc4)o3)n2)ccn1 (stereo not drawn) [Compound I-82]
  ATR Ki: +++ (Compounds with a Ki value >5 nM but ≦1 nM are marked with “+++.”)

## CC(C)(C#N)c1cc(-c2cnc(N)c(-c3nnc(-c4cccc(NC5CNC5)c4)o3)n2)ccn1 [Compound I-84]
  ATR Ki: +++ (Compounds with a Ki value >5 nM but ≦1 nM are marked with “+++.”)

## CN(C)CCNC(=O)C(C)(C)c1cc(-c2cnc(N)c(-c3cc(-c4ccccc4)no3)n2)ccn1 [Compound I-85]
  Ki: 5 to 20 nM

## CN1CCN(c2ccc(-c3nnc(-c4nc(-c5ccnc(C(C)(C)C#N)c5)cnc4N)o3)cc2)CC1 [Compound I-86]
  ATR Ki: +++ (Compounds with a Ki value >5 nM but ≦1 nM are marked with “+++.”)

## COC[C@@H](N)c1ccc(-c2nnc(-c3nc(-c4ccnc(C(C)(C)C#N)c4)cnc3N)o2)cc1 [Compound I-87]
  Ki: < 1 nM

## CC(C)(C#N)c1cc(-c2cnc(N)c(-c3nnc(-c4ccc(N5CC[C@H](N)C5)cc4)o3)n2)ccn1 [Compound I-88]
  Ki: < 1 nM

## CC(C)(C#N)c1cc(-c2cnc(N)c(-c3nnc(-c4cccc(C5CCCN5)c4)o3)n2)ccn1 (stereo not drawn) [Compound I-89]
  Ki: 5 to 20 nM

## CC(C)(C#N)c1cc(-c2cnc(N)c(-c3nnc(-c4cccc(N5CC[C@H](N)C5)c4)o3)n2)ccn1 [Compound I-90]
  Ki: < 1 nM

## CCCN(CCN(C)C)C(=O)c1cc(-c2cnc(N)c(-c3cc(-c4ccccc4)no3)n2)ccn1 [Compound I-91]
  Ki: 5 to 20 nM

## CC(C)(C#N)c1cc(-c2cnc(N)c(-c3cc(-c4ccc(CNC5CCCOC5)cc4)no3)n2)ccn1 (stereo not drawn) [Compound I-93]
  Ki: < 1 nM

## N#CC1(c2cc(-c3cnc(N)c(-c4nnc(-c5ccccc5)o4)n3)ccn2)CCNCC1 [Compound I-94]
  Ki: 5 to 20 nM

## CC(C)(C#N)c1cc(-c2cnc(N)c(-c3nnc(-c4cccc(C5CNC5)c4)o3)n2)ccn1 [Compound I-95]
  ATR Ki: +++ (Compounds with a Ki value >5 nM but ≦1 nM are marked with “+++.”)
